Nine compounds from patent US8481522B2, “Platinum-N-heterocyclic carbene derivatives, preparation thereof and therapeutic use thereof” (Sanofi, priority 2008, dated 2013) can be followed below.

“And” between values parts separate entries of the source, which are not always exact repeats. Equal entries are not always repeated. Where only a bound is given, the exact number is not on record here.

Assay type in all cases: cell-based
One assay deals with CCRF-CEM cells. As to the kind of experiment: Cytotoxicity, non-adherent CCRF-CEM cells, CellTiter-Glo luminescent cell viability. Conditions: CCRF-CEM human T leukaemia, 96 h incubation. How it is done: CCRF-CEM is a human T leukaemia (Cancer 1965, 18: 522-529). Oxaliplatin induces bifunctional lesions such as inter- and intra-DNA strand adducts on these CCRF-CEM cells (Mol Pharmacol 2000, 58: 920-927). […] This deficiency makes these cells particularly […] to alkylating agents and to platinum compounds.
For the non-adherent CCRF-CEM cells, the cell viability is measured by the luminescence test CellTiter-Glo® Luminescent Cell Viability Assay (Promega, Madison, Wis., USA). When it is added to the cells, the reagent produces a luminescence in the presence of the ATP of the living cells. The results are evaluated on a suitable reader (Envision, Perkin-Elmer Life Sciences, Boston, Mass., USA).
The CCRF-CEM cells are cultured in RPMI1640 medium containing 10% foetal calf serum, 2 mM L-glutamine, 100 units/ml of penicillin and […] of streptomycin, at 37° C. in a 95% air/5% CO2 atmosphere. The cells, at the exponential growth phase, are introduced into the wells of a 96-well plate at the density of 5×10^3 cells per well in an opaque plate (Greiner), in a volume of 150 μl. After incubating for 4 h at 37° C. in a 95% air/5% CO2 atmosphere, the compounds (concentrated 20-fold) are added in a volume of 8 μl. The compounds are prepared beforehand as a stock solution at the concentration of 10 mM in DMSO. A serial dilution is performed before the compounds are brought into contact with the cells. After incubating for 96 h at 37° C., 100 μl of agents (CellTiter-Glo) are added. After lysing the cells, the release of ATP is evaluated on the Envision reader.
(§1) The IC50 values are evaluated from curves presenting the percentage viability as a function of the concentration of the test compound, using the Biostat speed software. The IC50 is defined as the concentration of the compound which inhibits 50% of the cell proliferation or 50% of the cell viability.

A further assay deals with H460. In words: Cytotoxicity, adherent cells, 14C-thymidine incorporation (cell proliferation). The following applies: NCI-H460 human non-small cell lung cancer, 96 h treatment. How it is done:
NCI-H460 is a human non-small cell lung cancer which has a mutation in the K-ras gene. This cell is sensitive to platinum compounds. In this cell line, cisplatin forms more adducts than oxaliplatin at the same concentration and yet the percentage repair is higher for oxaliplatin (DNA Repair 2006, 5: 219-225).
(§2) Cell proliferation is evaluated by the incorporation of ^14C-thymidine into the DNA of the cells. A549, CH1, CH1/DDP and H460 are cultured in Dulbecco's modified Eagle's medium (DMEM), SK-OV-3 in Mc-Coy medium, A2780 and A2780/DDP in RPMI1640 medium. All the media contain 10% foetal calf serum, 2 mM L-glutamine, 100 units/ml of penicillin and […] of streptomycin. The incubation is performed at 37° C. in a 95% air/5% CO2 atmosphere.
(§3) The cells, at the exponential growth phase, are introduced into the wells of a Cytostar 96-well plate, containing a scintillation fluid (Cytostar-T scintillating microplate, GE Healthcare Bio-Sciences AB, Uppsala, Sweden), at the density of 5×10^3 to 10^4 cells per well, in an amount of 180 μl per well. After incubating for 4 hours, the test compounds are added. The compounds are prepared beforehand as a stock solution at the concentration of 10 mM in DMSO. A serial dilution is performed before the compounds are brought into contact with the cells in a volume of 10 μl. After incubating for 72 hours at 37° C. in an atmosphere of 95% air/5% CO2, 0.1 μCi/well of ^14C-thymidine is added. 24 h later (total 96 h of treatment), the incorporation of ^14C-thymidine is recorded on a suitable scintillation counter (MicroBeta radioactivity counting, Perkin-Elmer Life Sciences, Boston, Mass., USA). The mean values obtained in the experimental groups are divided by the mean values obtained in the control groups in order to obtain percentages relative to the controls.
as §1
In general terms: Dividing cells build labelled thymidine or BrdU into new DNA.

The test system of the next assay is A2780/DDP. The description is as above. Conditions: A2780/DDP cisplatin-resistant human ovarian cancer, 96 h treatment.
From the text: (§4) A2780 and A2780/DDP are human ovarian cancer lines. […] The resistance of the A2780/DDP line is of the acquired type and involves various mechanisms: —reduction in the capacity for internalization of cisplatin, —replicative bypass (this is defined as the possibility for a replicative complex to synthesize DNA beyond the site of damage) (Cancer Res 1994; 54:3500-3505), —active detoxification by glutathione (Exp Oncol 2005; 27:191-195), —low activity of Caspase-3, enzymes involved in the process of programmed cell death (J Cancer Res Clin Oncol 2004; 130:423-428) and finally high nuclear efflux of platinum compounds (Oncol Rep 2004; 12:1365-1370).
as §2, §3, §1

The test system of a further assay is A2780. Described as above. Conditions: A2780 human ovarian cancer, 96 h treatment.
From the text: as §4, §2, §3, §1

The next assay has as its system CH1/DDP. The assay is described as above. Conditions: CH1/DDP cisplatin-resistant human ovarian cancer, 96 h treatment.
From the text: (§5) CH1 and CH1 CisR are human ovarian cancers which are sensitive and resistant to cisplatin, respectively. The relative sensitivity of the CH1 cell may be at least partially attributed to a deficiency of a gene involved in repair processes and which is capable of removing the adducts (Chemico-Biological Interactions, 1999; 123:11-29). The CH1cisR cell is resistant to cisplatin through a poorly known mechanism of DNA repair, or increase in the tolerance of the cell to the damage caused by cisplatin to the DNA of this cell (Mol Pharmacol 2003; 63:933-944, Cancer Res 52: 3857-3864).
as §2, §3, §1

The test system of a further assay is CH1. The description is as above. The following applies: CH1 human ovarian cancer, 96 h treatment.
From the text: as §5, §2, §3, §1

The next assay deals with SK-OV-3. The assay is described as above. Conditions: SK-OV-3 human ovarian cancer, 96 h treatment, read-out: SKOV3 IC50. Here is the method: SK-OV-3 is a human ovarian cancer. […] This cell has an intrinsic mechanism of resistance to cisplatin which is linked to high levels of glutathione (Br J Cancer 1998; 78:175-180). This cell line is commonly used to explore the effects of high levels of glutathione on the resistance to platinum compounds (Br J Cancer 1996, 74: 380-386).
as §2, §3, §1

By IC50 is commonly meant the concentration at which inhibition is half-maximal. With `Cn1c(=O)c2c(n(C)c1=O)n(C)[c](=[Pt-]([I])([I])[NH2+]C1CCCCC1)n2C` [Example 9, trans-diiodo(N-cyclohexylamine)(1,3,7,9-tetramethylxanthin-8-ylidene)platinum(II)], the IC50 came out at 2700 nM with CCRF-CEM cells; 1600 nM with H460; 1400 nM in the assay on A2780/DDP; 1800 nM in the assay with A2780; 2100 nM with CH1/DDP; 2200 nM with CH1. In addition, in the assay with SK-OV-3, the IC50 is more than 10000 nM.

For the compound `Cn1ccn(Cc2ccc(C(F)(F)F)cc2)[c]1=[Pt-]([I])([I])[NH2+]C1CCCCC1` [Example 11, trans-diiodo(N-cyclohexylamine)[1-methyl-3-(4-trifluoromethylbenzyl)imidazol-2-ylidene]platinum(II)], the half-maximal inhibitory concentration (IC50) in the assay on CCRF-CEM cells was 1000 nM; in the assay with H460, 1500 nM; in the assay on A2780/DDP it was 1100 nM; in the assay on A2780, 800 nM; with SK-OV-3, 2600 nM.

For the compound `O=C1[O][Pt]2([NH][C@@H]3CCCC[C@H]3[NH]2)[O]C1=O` [Oxaliplatin, oxaliplatin, reference compound], the half-maximal inhibitory concentration (IC50) in the assay on CCRF-CEM cells is 900 nM; in the assay with H460 it was 4000 nM; in the assay on A2780/DDP, 17300 nM; in the assay with A2780 it was 3900 nM; in the assay with CH1/DDP it was 6200 nM; in the assay on CH1, 4200 nM. Further, the IC50 with SK-OV-3 is more than 10000 nM.

On to `Cn1[c](=[Pt-]([I])([I])[NH2+]C2CC3CCC2C3)n(C)c2ccccc21` (single isomer, unassigned) [Example 17, trans-diiodo(N-exo(−)bicyclo[2.2.1]heptylamine)(1,3-dimethylbenzimidazol-2-ylidene)platinum(II)], for which the IC50 in the assay on CCRF-CEM cells is 1800 nM; in the assay with H460, 1100 nM; in the assay on A2780/DDP, 2200 nM; in the assay with A2780, 1100 nM; in the assay with SK-OV-3 it was 5000 nM.

On to `Cn1[c](=[Pt-]([I])([I])[NH2+]C2CC3CCC2C3)n(C)c2ccccc21` (racemic) [Example 7, trans-diiodo(N-exo(+/−)bicyclo[2.2.1]heptylamine)(1,3-dimethyl-benzimidazol-2-ylidene)platinum(II)], for which the half-inhibitory concentration (IC50) was found to be 1300 nM with CCRF-CEM cells; 1900 nM with H460; 1800 nM in the assay with A2780/DDP; 400 nM with A2780; 2400 nM in the assay with CH1/DDP; 2500 nM in the assay on CH1. Also, the IC50 with SK-OV-3 was determined as 7000 nM.

Turning to `N.N.[Cl][Pt][Cl]` [Cisplatin, cisplatin, reference compound], the IC50 is 3000 nM in the assay with CCRF-CEM cells; 2400 nM with H460; more than 10000 nM in the assay with A2780/DDP; 9000 nM in the assay with A2780; more than 10000 nM with CH1/DDP; 8000 nM in the assay on CH1. In addition, the IC50 in the assay with SK-OV-3 was 6100 nM.

In the case of `Cn1ccn(Cc2ccccc2)[c]1=[Pt-]([I])([I])[NH2+]C1CCCCC1` [Example 5, trans-diiodo(N-cyclohexylamine)(1-methyl-3-benzylimidazol-2-ylidene)platinum(II)], the IC50 with CCRF-CEM cells was 1200 nM and 1400 nM; in the assay with H460, 1700 nM and 2700 nM; in the assay on A2780/DDP it was 1800 nM; in the assay with A2780, 900 nM; in the assay with CH1/DDP, 2400 nM; with CH1 it was 2400 nM. Further, the concentration for half-maximal inhibition (IC50) in the assay with SK-OV-3 is 6500 nM.

With `COc1ccc(Cn2ccn(C)[c]2=[Pt]([I])([I])[NH]C2CCCCC2)cc1` [Example 10, trans-diiodo(N-cyclohexylamine)[1-methyl-3-(4-methoxybenzyl)-imidazol-2-ylidene]platinum(II)], the IC50 was found to be 1600 nM in the assay with CCRF-CEM cells; 3800 nM in the assay with H460; 2300 nM in the assay with A2780/DDP; 1600 nM in the assay with A2780; 5200 nM with SK-OV-3.

Take `Cn1ccn(CC2CCCCC2)[c]1=[Pt-]([I])([I])[NH2+]C1CCCCC1` [Example 3, trans-diiodo(N-cyclohexylamine)(1-methyl-3-cyclohexylmethylimidazol-2-ylidene)platinum(II)]: the IC50 was 2000 nM in the assay with CCRF-CEM cells; 3800 nM in the assay on H460; 1200 nM with A2780/DDP; 1000 nM with A2780; 2000 nM in the assay on CH1/DDP; 2300 nM with CH1. Further, in the assay on SK-OV-3, the IC50 came out at 5300 nM.
